Columns and labels:
hiPSC-derived NSCs [1] = test: OLIG2 immunostaining of hiPSC-derived NSCs at D12; format: cell-based, human; settings: for effect on WIN-induced upregulation of OLIG2+ cells: co-treatment with WIN, D12
Protocol: (§1) In order to generate PAX6+/NESTIN+/SOX2+NSC, the dual SMAD neural induction method was used. hiPSCs with a density of ˜80% with neural induction medium (NIM) were treated from day 0 (DO) to day 7, and the medium was changed every day. Starting from D8, the medium was changed daily to fresh N2 medium containing RA (100 nM), purine amine (PUR, 1 μM) and WIN (1 μM). Starting from D12, cells were manually isolated and suspended in the ultra-low attachment plate in N2B27 medium containing RA (100 nM), PUR (1 μM) and WIN (1 μM), and the medium was changed every other day. Starting from D20, the spheroids were further suspended in PDGF-AA medium for culture. At D30, expanded spheroids were seeded on Matrigel-coated plates or Petri dishes with low growth factors in the glial differentiation medium (GDM).
(§2) The identification of cell markers in the present invention uses an immunofluorescence staining method, wherein cells (NSCs, OPCs and OLs) at different culture stages were cultured on confocal Petri dishes coated with Matrigel or Matrigel with reduced growth factors, washed three times with pre-cooled PBS, and fixed with 4% paraformaldehyde (PFA) at room temperature for 15 minutes. The fixed samples were then washed three times, permeabilized and blocked with blocking solution containing 0.5% triton X-100 and 2% bovine serum albumin (BSA) for 30 min at room temperature. The diluted primary antibodies listed in Table S2 were applied to cover the cells overnight at 4° C. The next day, the corresponding secondary antibodies (listed in Table S3) were added for staining in the dark for 60 min at room temperature after washing. DAPI containing anti-fluorescence quencher was then added to the culture dish for nuclear staining. Images were taken using a confocal microscope (Zeiss, LSM880) or an inverted microscope (Nikon, Eclipse Ti2-U).

hiPSC-derived NSCs [2] = test: Number of OLIG2+ spheroids in suspension culture at D20; format: cell-based, human; settings: D20, n=3
Protocol: as §1

hiPSC-derived OPCs [3] = test: OPC marker immunofluorescence and flow cytometry at D34; format: cell-based, human; settings: D34, n=3
Protocol: as §2
Taking flow cytometry based on anti-O4-APC antibody as an example, 2 μL antibody was added to a 98 μL of single cell suspension containing 1×10^6 cells and cell staining buffer, mixed well and incubated for 10 min in the dark in a refrigerator. After incubation, cells were washed and dried. […]

hiPSC-derived OPCs [4] = test: In vitro maturation of OPCs to OLs (O4, GALC, MBP; immunofluorescence and flow cytometry); format: cell-based, human
Protocol: as §2
Taking flow cytometry based on anti-O4-APC antibody as an example, 2 μL antibody was added to a 98 μL of single cell suspension containing 1×10^6 cells and cell staining buffer, mixed well and incubated for 10 min in the dark in a refrigerator. After incubation, cells were washed and dried. The cell pellet was then resuspended in an appropriate amount of buffer and filtered through […] cell filter prior to analysis. Flow cytometry was performed on a CytoFLEX cytometer (Beckman, USA).

[5] = tested on: hiPSC-derived cell spheres; test: Cell migration out of spheroids; format: cell-based, human; settings: after 36 hours, n=40
Protocol: In order to test the migration ability, the inventor carried out experiments on two dimensions of spheroid and single-cell state. First, the inventors have observed the ability of cells in the control and WIN groups to migrate out of the spheroids. Selected spheroids of the same size at day 30 from the control and WIN groups were seeded on 6-well plates coated with Matrigel with reduced growth factor in GDM medium. After 4, 12, 24, and 36 h, cell spheres and migrated cells were observed and imaged under an inverted microscope.

NSC = test: Effect of WIN concentration series on NSC growth; format: cell-based, human; settings: 1 μM WIN
D30 cells = test: RNA SEQ on D30 cells; format: cell-based, human
Protocol: Total RNA was extracted using RNA rapid purification kit (ES science, Shanghai, China) according to the manufacturer's instructions. RNA library sequencing was performed on an Illumina HiseqTM 2500/4000 by Gene Denovo Biotechnology Co.,
Ltd. (Guangzhou, China). Bioinformatics analysis was performed using Omicsmart, which is a real-time interactive online platform for data analysis (http://www.omicsmart.com).

O4+ OPCs = test: Nanofiber myelination assay; format: cell-based, human; settings: after 2 weeks of culture
Protocol: O4+ OPC isolation was performed according to the manufacturer's instructions using MACS based on anti-O4 microbeads (MiltenyiBiotec, Germany). A single cell suspension was prepared by digesting cells with pre warmed Accutase at 37° C. for 30 min at day 44. After digestion, the cell mixture was diluted with pre-cooled DMEM/F12 and centrifuged at 300 g for 5 min at room temperature. The cells were then resuspended in DMEM/F12 and filtered through […] cell filter, and cells were collected by centrifugation at 300 g for 5 min at room temperature. After mixing evenly, the cell mixture was incubated in a refrigerator for 15 min. Then 1 mL of cold MACS buffer was added and centrifuged at 300 g for 10 min. The cell pellet was resuspended in 500 μL cold MACS buffer and mixed well. Afterwards, the cell mixture was added to the MS column and pre-rinsed using 500 μL cold MACS buffer in the magnetic field of a suitable MACS separator, and the column was washed three times with 500 μL buffer. Unlabeled cells were collected from the effluent. When the column reservoir was empty, the column was placed on a 15 mL collection tube and rinse with 1 mL buffer. Magnetically labeled cells were collected from the effluent by firmly pushing the plunger into the column. The eluted O4+ rich cells were then centrifuged at 300 g for 5 min and resuspended in 1 mL GDM. […]

hiPSC-derived OPCs/OLs = test: qRT-PCR relative mRNA expression in differentiating cells; format: cell-based, human
Text: The present invention uses qRT-PCR to calculate the relative mRNA expression fold changes. The specific method is as follows: according to the manufacturer's instructions, the RNA rapid purification kit (ES science, Shanghai, China) was used to collect and purify the total RNA of cells and spinal cord tissue. After quantifying the RNA concentration with NANODROP ONE (Thermo Fisher Scientific, USA),
EasyScript® Integrated first-line cDNA synthesis Supermix and T100TM thermal cycler (BIO-RAD) was used for […] (one-step gDNA removal), and then PerfectStart Green qPCR SiperMix (TRNAS, China) and LightCycler® 96 (Roche) were used for quantification by qRT-PCR. All processes were performed according to the manufacturer's instructions. 2-AACt method was used to calculate the relative mRNA expression fold changes.

hiPSC-derived OPCs [6] = test: Scratch assay, single-cell migration; format: cell-based, human; settings: at 48h, n=3
Protocol: In the scratch assay, 34-day-old cells were digested with pre-warmed accutase and filtered through […] cell filter to produce a single-cell suspension. After centrifugation, these single cells were seeded on a 24-well plate coated with Matrigel with reduced growth factor at the density of 2×10^6/mL and cultured with GDM. When the cell confluence reached 70-80%, a scratch was formed on the cell using 10 μL the pipette tip. After washing with DPB, fresh GDM was added to the wells. Cell images were collected at 0, 12, 24, 36, 48, 60, and 72 h using an inverted microscope. All images were measured and analyzed by Image J (i.e., software image J).

[7] = tested on: rat neuropathic pain models; settings: cited from earlier work

SMILES | effect on WIN-induced upregulation of OLIG2+ cells (hiPSC-derived NSCs [1]) | OLIG2+ spheroids relative to control group (hiPSC-derived NSCs [2]) | cells expressing PDGFR α (hiPSC-derived OPCs [3]) | percentage of O4+ cells (hiPSC-derived OPCs [4]; D44, n=4) | cells expressing immature OL marker GALC (hiPSC-derived OPCs [4]; D55, n=3) | percentage of mature OLs co-expressing O4 and MBP (hiPSC-derived OPCs [4]; D66, n=3) | average migration distance of cells from cell spheres [5] | side effects on the growth of NSC (NSC) | genes down-regulated compared with control group (D30 cells) | genes up-regulated compared with control group (D30 cells) | area of nanofibers covered by MBP compared with control group (O4+ OPCs) | number of MBP+ OLs on nanofibers compared with control group (O4+ OPCs) | mRNA expression level of PDGFR a compared with control group (hiPSC-derived OPCs/OLs; D30, n=3, P<0.01) | mRNA expression of GALC (hiPSC-derived OPCs/OLs; D55) | mRNA expression of MBP (hiPSC-derived OPCs/OLs; D55) | mRNA expression of PLP1 (hiPSC-derived OPCs/OLs; D55) | migration rate in scratch experiment (hiPSC-derived OPCs [6]) | analgesic activity [7] | OLIG2-positive (OLIG2+) cells (hiPSC-derived NSCs [1]; 1 μM WIN, D12, n=3)
COc1ccc(C(=O)c2c(C)n(CCN3CCOCC3)c3cc(I)ccc23)cc1 [AM630] | significantly inhibited | – | – | – | – | – | – | – | – | – | – | – | – | – | – | – | – | – | –
Cc1c(C(=O)c2cccc3ccccc23)c2cccc3c2n1[C@H](CN1CCOCC1)CO3 [WIN, WIN55212-2] | – | 1.7 ±0.1 times | more than 95.4±2.2% | 42.4±2.1% | 86.2±5.3% | 37.2±2.9% | 203.7±6.3 μm | no side effects on the growth of NSC | 98 genes | 983 genes | significantly increased | significantly increased | up-regulated | up-regulated | up-regulated | up-regulated | 44.5±1.0% | potent analgesic | 95.4±0.2%
Cc1c(C(=O)NN2CCCCC2)nn(-c2ccc(Cl)cc2Cl)c1-c1ccc(Cl)cc1 [rimonabant, Rimonabant] | significantly inhibited | – | – | – | – | – | – | – | – | – | – | – | – | – | – | – | – | – | –

Reference: patent US20250319136A1, “METHOD FOR PREPARING OLIGOD[…] USE” (Shenzhen ExoNeuglia Biomedical Technology Co., Ltd., priority 2022, published 2025)
